Source: US20250215039A1, “NUCLEOSIDES FOR TREATING CANCER” (PRIMEFOUR THERAPEUTICS, INC., priority 2022, published 2025)
Read-outs that look alike come from different tables or passages of the source.

Tested on: cancer cell lines
Test: Cancer cell proliferation activity (CellTiterGlo, 72 h)
Type: cell-based
Conditions: 72 h, 72 h, read-out: IC50
Summary of the method: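 Cells seeded overnight at 37 °C, then dosed with compound at 0.1% final DMSO and incubated 72 h at 37 °C (5% or 10% CO2 by medium).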

## COC[C@]1(CO)O[C@@H](n2cnc3c(N)nc(F)nc32)C[C@@H]1O [Cpd. No. 140, (2S,3S,5R)-5-(6-amino-2-fluoro-9H-purin-9-yl)-2-(hydroxymethyl)-2-(methoxymethyl)tetrahydrofuran-3-ol]
5637 cell line (bladder)
  IC50: 660 nM
AS49 cell line (lung)
  IC50: 4060 nM
CLS439 cell line (bladder)
  IC50: 9830 nM
HS729 cell line (muscle)
  IC50: 860 nM
JAR cell line (placenta)
  IC50: 330 nM
Homo sapiens, 22Rv1, 72 h, 22RV1 cell line (prostate)
  IC50: 1240 nM
Homo sapiens, 786-0, 72 h, 786O cell line (kidney)
  IC50: 400 nM
Homo sapiens, A204, 72 h, A204 cell line (muscle)
  IC50: 270 nM
Homo sapiens, A673, 72 h, A673 cell line (bone)
  IC50: 1950 nM
Homo sapiens, A2780, 72 h, A2780 cell line (ovary)
  IC50: 770 nM
Homo sapiens, A-375, 72 h, A375 cell line (skin)
  IC50: 210 nM
Homo sapiens, A-431, 72 h, A431 cell line (skin)
  IC50: 290 nM
Homo sapiens, ACHN, ACHN cell line (kidney)
  IC50: 2850 nM
Homo sapiens, ASPC1, 72 h, ASPC1 cell line (pancreas)
  IC50: 230 nM
Homo sapiens, BT-20, 72 h, BT20 cell line (breast)
  IC50: 390 nM
Homo sapiens, BXPC-3, 72 h, BXPC3 cell line (pancreas)
  IC50: 3380 nM
Homo sapiens, C-33-A, C33A cell line (cervical)
  IC50: 650 nM
Homo sapiens, CAKI-1, 72 h, CAKI1 cell line (kidney)
  IC50: 30 nM
Homo sapiens, COLO 205, 72 h, COLO205 cell line (colon)
  IC50: 810 nM
Homo sapiens, COLO-678, 72 h, COLO678 cell line (colon)
  IC50: 4150 nM
Homo sapiens, Ca-Ski, CASKI cell line (cervical)
  IC50: 200 nM
Homo sapiens, Caco-2, 72 h, CACO2 cell line (colon)
  IC50: 660 nM
Homo sapiens, Calu-6, 72 h, CALU6 cell line (lung)
  IC50: 300 nM
Homo sapiens, DLD-1, 72 h, DLD1 cell line (colon)
  IC50: 2490 nM
Homo sapiens, DU-145, 72 h, DU145 cell line (prostate)
  IC50: 160 nM
Homo sapiens, EFO-21, 72 h, EFO21 cell line (ovary)
  IC50: 540 nM
Homo sapiens, EJ-28, 72 h, EJ28 cell line (bladder)
  IC50: 440 nM
Homo sapiens, Granta-519, 72 h, GRANTA-519 cell line (hematological)
  IC50: 3460 nM
Homo sapiens, HCT-15, 72 h, HCT15 cell line (colon)
  IC50: 2070 nM
Homo sapiens, HCT-116, 72 h, HCT116 cell line (colon)
  IC50: 620 nM
Homo sapiens, HEK293, 72 h, HEK293 cell line (kidney)
  IC50: 460 nM
Homo sapiens, HL-60, 72 h, HL-60 cell line (hematological)
  IC50: 670 nM
Homo sapiens, HT-29, 72 h, HT29 cell line (colon)
  IC50: 300 nM
Homo sapiens, HT-1080, 72 h, HT1080 cell line (connective tissue)
  IC50: > 50000 nM
Homo sapiens, HeLa, HELA cell line (cervical)
  IC50: 490 nM
Homo sapiens, HepG2, 72 h, HEPG2 cell line (liver)
  IC50: 450 nM
Homo sapiens, Hs-578T, HS578T cell line, breast
  IC50: 470 nM
Homo sapiens, IGROV-1, 72 h, IGROV1 cell line (ovary)
  IC50: 340 nM
Homo sapiens, IMR-90, 72 h, IMR90 cell line, lung
  IC50: 450 nM
Homo sapiens, J82, 72 h, J82 cell line (bladder)
  IC50: 380 nM
Homo sapiens, JEG-3, 72 h, JEG3 cell line (placenta)
  IC50: 380 nM
Homo sapiens, JIMT-1, 72 h, JIMT1 cell line (breast)
  IC50: 90 nM
Homo sapiens, K562, 72 h, K-562 cell line (hematological)
  IC50: 3950 nM
Homo sapiens, Kasumi 1, 72 h, KASUMI-1 cell line (hematological)
  IC50: 80 nM
Homo sapiens, L-363, 72 h, L-363 cell line (hematological)
  IC50: 420 nM
Homo sapiens, LoVo, LOVO cell line (colon)
  IC50: 190 nM
Homo sapiens, MCF7, 72 h, MCF7 cell line (breast)
  IC50: > 50000 nM
Homo sapiens, MDA-MB-231, 72 h, MDAMB231 cell line (breast)
  IC50: 7320 nM
Homo sapiens, MDA-MB-435, 72 h, MDAMB435 cell line (skin)
  IC50: 1690 nM
Homo sapiens, MDA-MB-436, 72 h, MDAMB436 cell line (breast)
  IC50: 250 nM
Homo sapiens, MDA-MB-468, 72 h, MDAMB468 cell line (breast)
  IC50: 240 nM
Homo sapiens, MG-63, 72 h, MG63 cell line (bone)
  IC50: > 50000 nM
Homo sapiens, MHH-ES-1, 72 h, MHHES1 cell line (bone)
  IC50: 500 nM
Homo sapiens, MIA PaCa-2, 72 h, MIAPACA2 cell line (pancreas)
  IC50: > 50000 nM
Homo sapiens, MINO, MINO cell line (hematological)
  IC50: 180 nM
Homo sapiens, MV4-11, 72 h, MV4-11 cell line (hematological)
  IC50: 160 nM
Homo sapiens, NCI-H23, 72 h, NCI-H23 cell line (lung)
  IC50: 640 nM
Homo sapiens, NCI-H82, 72 h, NCIH82 cell line (lung)
  IC50: 490 nM
Homo sapiens, NCI-H292, 72 h, NCIH292 cell line (lung)
  IC50: 2970 nM
Homo sapiens, NCI-H460, 72 h, NCIH460 cell line (lung)
  IC50: 600 nM
Homo sapiens, OVCAR-3, 72 h, OVCAR3 cell line (ovary)
  IC50: 180 nM
Homo sapiens, OVCAR-4, 72 h, OVCAR4 cell line (ovary)
  IC50: 600 nM
Homo sapiens, PANC-1, 72 h, PANC1 cell line (pancreas)
  IC50: > 50000 nM
Homo sapiens, PC-3, 72 h, PC3 cell line (prostate)
  IC50: 660 nM
Homo sapiens, PLC-PRF-5, 72 h, PLCPRF5 cell line (liver)
  IC50: 4950 nM
Homo sapiens, Panc1005, 72 h, PANC1005 cell line (pancreas)
  IC50: 370 nM
Homo sapiens, RD, RD cell line (muscle)
  IC50: 870 nM
Homo sapiens, Ramos, RAMOS cell line (hematological)
  IC50: 600 nM
Homo sapiens, SAOS-2, 72 h, SAOS2 cell line (bone)
  IC50: 360 nM
Homo sapiens, SF-268, 72 h, SF268 cell line (brain)
  IC50: > 50000 nM
Homo sapiens, SF-295, 72 h, SF295 cell line (brain)
  IC50: 1730 nM
Homo sapiens, SK-BR-3, 72 h, SKBR3 cell line (breast)
  IC50: 70 nM
Homo sapiens, SK-HEP1, 72 h, SKHEP1 cell line (liver)
  IC50: 3410 nM
Homo sapiens, SK-LMS-1, 72 h, SKLMS1 cell line (uterus)
  IC50: 340 nM
Homo sapiens, SK-MEL-5, 72 h, SKMEL5 cell line, skin
  IC50: 4010 nM
Homo sapiens, SK-MEL-28, 72 h, SKMEL28 cell line (skin)
  IC50: 670 nM
Homo sapiens, SK-N-AS, SKNAS cell line (brain)
  IC50: 630 nM
Homo sapiens, SK-N-SH, SKNSH cell line (brain)
  IC50: 320 nM
Homo sapiens, SK-OV-3, 72 h, SKOV3 cell line (ovary)
  IC50: 620 nM
Homo sapiens, SNB-75, 72 h, SNB75 cell line (brain)
  IC50: 1510 nM
Homo sapiens, SU-DHL10, 72 h, SU-DHL-10 cell line (hematological)
  IC50: 530 nM
Homo sapiens, SU-DHL-6, 72 h, SU-DHL-6 cell line (hematological)
  IC50: 360 nM
Homo sapiens, SW-620, 72 h, SW620 cell line (colon)
  IC50: 540 nM
Homo sapiens, T-24, 72 h, T24 cell line (bladder)
  IC50: 710 nM
Homo sapiens, TE-671, 72 h, TE671 cell line (muscle)
  IC50: 1920 nM
Homo sapiens, THP-1, 72 h, THP-1 cell line (hematological)
  IC50: > 50000 nM
Homo sapiens, U2OS, U2OS cell line (bone)
  IC50: 610 nM
Homo sapiens, U-87 MG, U87MG cell line (brain)
  IC50: 3660 nM
Homo sapiens, UMUC3, 72 h, UMUC3 cell line (bladder)
  IC50: 3400 nM
Homo sapiens, UO-31, 72 h, UO31 cell line (kidney)
  IC50: 280 nM
Homo sapiens, WSU-NHL, WSU-NHL cell line (hematological)
  IC50: 430 nM
MT-3, 72 h, MT3 cell line (breast)
  IC50: 360 nM
NCI-H358M, NCIH358M cell line (lung)
  IC50: 430 nM
PBMC, PBMC (hematological)
  IC50: > 50000 nM
RD-ES, RDES cell line (bone)
  IC50: 270 nM
